Reference: paper PMC5430920 (Scientific Reports, 2017)

Key:
[1] = molecular target: T1, MtOPRT (Mycobacterium tuberculosis, UniProt P9WHK9)
T1 construct: gene pyrE

[2] = molecular target: T1, MtOPRT; remark: listed apart in the source

T1 sequence (P9WHK9 whole entry): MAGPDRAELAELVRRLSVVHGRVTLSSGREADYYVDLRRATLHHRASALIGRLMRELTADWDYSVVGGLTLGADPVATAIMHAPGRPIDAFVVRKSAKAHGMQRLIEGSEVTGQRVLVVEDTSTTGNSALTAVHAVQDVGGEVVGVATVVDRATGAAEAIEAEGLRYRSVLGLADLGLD

| Compound | X-ray crystal structure, 2.25 Å [1] | X-ray crystal structure, 1.90 Å [2] |
| --- | --- | --- |
| O=P(O)(O)OC[C@H]1O[C@H](OP(=O)(O)OP(=O)(O)O)[C@H](O)[C@@H]1O [PRPP, α-D-5-phosphoribosyl-1-pyrophosphate] | A PRPP molecule could be unambiguously identified in the active site in both monomers |  |
| O=P(O)(O)O [Pi, inorganic phosphate] |  | the inorganic phosphate occupies the same binding pocket of the 5-phosphate group of PRPP |
